Literature values, collected in PMC11776332 (Virology Journal, 2025).

Test system: HIV-1

SMILES: C=C(C)[C@@H]1CC[C@]2(NCCN3CCS(=O)(=O)CC3)CC[C@]3(C)[C@H](CC[C@@H]4[C@@]5(C)CC=C(C6=CC[C@@](CF)(C(=O)O)CC6)C(C)(C)[C@@H]5CC[C@]43C)[C@@H]12 [GSK3640254]
- IC50 compared with CV-10240: lower IC50 than CV-10240
